The source made the active and inactive calls. No cut-off for these calls is given here.
Experiments:
[1] = molecular target: T1, 5-hydroxytryptamine receptor 3A (Mus musculus, UniProt P23979); assay: Displacement of [3H]LY278584 from mouse 5-HT3A receptor
T1 sequence (P23979 whole entry): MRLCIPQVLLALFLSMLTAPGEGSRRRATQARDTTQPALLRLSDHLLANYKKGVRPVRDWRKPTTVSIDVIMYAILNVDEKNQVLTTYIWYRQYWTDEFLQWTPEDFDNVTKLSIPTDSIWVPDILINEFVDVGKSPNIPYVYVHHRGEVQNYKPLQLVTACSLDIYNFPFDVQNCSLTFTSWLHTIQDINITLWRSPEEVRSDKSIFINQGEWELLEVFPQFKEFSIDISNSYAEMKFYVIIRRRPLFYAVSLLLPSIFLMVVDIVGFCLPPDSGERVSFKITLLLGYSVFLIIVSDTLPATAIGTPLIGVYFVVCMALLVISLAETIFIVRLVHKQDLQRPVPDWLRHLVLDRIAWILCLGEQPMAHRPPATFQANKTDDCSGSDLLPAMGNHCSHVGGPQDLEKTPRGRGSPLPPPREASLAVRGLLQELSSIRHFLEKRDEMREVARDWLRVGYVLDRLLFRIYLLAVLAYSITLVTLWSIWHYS

[2] = molecular target: T2, 5-hydroxytryptamine receptor 3A (Homo sapiens, UniProt P46098); assay: Displacement of [3H]GR65630 from 5-HT3 receptor (unknown origin) expressed in mouse/rat NG108-15 cells after 30 mins by liquid scintillation counting analysis; format: cell-based
T2 sequence (P46098 whole entry): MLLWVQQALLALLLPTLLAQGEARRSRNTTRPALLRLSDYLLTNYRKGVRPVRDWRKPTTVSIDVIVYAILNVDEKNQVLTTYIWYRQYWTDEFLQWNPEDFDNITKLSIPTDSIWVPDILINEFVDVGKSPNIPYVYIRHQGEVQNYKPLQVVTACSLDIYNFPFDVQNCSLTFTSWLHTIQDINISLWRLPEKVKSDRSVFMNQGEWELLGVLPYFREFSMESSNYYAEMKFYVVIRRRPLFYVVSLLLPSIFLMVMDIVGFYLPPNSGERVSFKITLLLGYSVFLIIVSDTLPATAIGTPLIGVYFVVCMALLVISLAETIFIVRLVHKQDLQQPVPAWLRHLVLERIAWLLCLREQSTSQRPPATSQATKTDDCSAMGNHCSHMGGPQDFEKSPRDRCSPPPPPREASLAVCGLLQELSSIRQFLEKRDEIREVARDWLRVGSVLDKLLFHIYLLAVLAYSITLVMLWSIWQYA

Mus musculus = assay: Antidepressant activity in ICR mouse assessed as immobility time at 20 mg/kg, ip by tail suspension test; format: functional, organism-based; design: dose 20 mg/kg

**Q.** `NC1=Nc2cc(Cl)ccc2CN1` was tested. Which Ki [1] did it give?
**A.** Its Ki is 1.97 µM.

**Q.** How did the Ki [2] turn out when `NC(N)=Nc1cccc(Cl)c1` was run?
**A.** The Ki was 0.032 µM.

**Q.** How did the Activity (Mus musculus) turn out when `CN(C)CCCN1c2ccccc2CCc2ccccc21` was run?
**A.** Its Activity is “Active”.
